Reference: patent US20200239530A1, “COMPOUNDS AND METHODS OF MODULATING PROTEIN DEGRADATION” (Vividion Therapeutics, Inc., priority 2017, published 2020)

Molecular target: T1, FBXO11 F-box only protein 11 (Homo sapiens, UniProt Q86XK2)
T1 construct: Cells were resuspended in cold PBS on ice and sonicated with a probe sonicator to achieve lysis; endogenous in cells
T1 sequence (Q86XK2 1-927): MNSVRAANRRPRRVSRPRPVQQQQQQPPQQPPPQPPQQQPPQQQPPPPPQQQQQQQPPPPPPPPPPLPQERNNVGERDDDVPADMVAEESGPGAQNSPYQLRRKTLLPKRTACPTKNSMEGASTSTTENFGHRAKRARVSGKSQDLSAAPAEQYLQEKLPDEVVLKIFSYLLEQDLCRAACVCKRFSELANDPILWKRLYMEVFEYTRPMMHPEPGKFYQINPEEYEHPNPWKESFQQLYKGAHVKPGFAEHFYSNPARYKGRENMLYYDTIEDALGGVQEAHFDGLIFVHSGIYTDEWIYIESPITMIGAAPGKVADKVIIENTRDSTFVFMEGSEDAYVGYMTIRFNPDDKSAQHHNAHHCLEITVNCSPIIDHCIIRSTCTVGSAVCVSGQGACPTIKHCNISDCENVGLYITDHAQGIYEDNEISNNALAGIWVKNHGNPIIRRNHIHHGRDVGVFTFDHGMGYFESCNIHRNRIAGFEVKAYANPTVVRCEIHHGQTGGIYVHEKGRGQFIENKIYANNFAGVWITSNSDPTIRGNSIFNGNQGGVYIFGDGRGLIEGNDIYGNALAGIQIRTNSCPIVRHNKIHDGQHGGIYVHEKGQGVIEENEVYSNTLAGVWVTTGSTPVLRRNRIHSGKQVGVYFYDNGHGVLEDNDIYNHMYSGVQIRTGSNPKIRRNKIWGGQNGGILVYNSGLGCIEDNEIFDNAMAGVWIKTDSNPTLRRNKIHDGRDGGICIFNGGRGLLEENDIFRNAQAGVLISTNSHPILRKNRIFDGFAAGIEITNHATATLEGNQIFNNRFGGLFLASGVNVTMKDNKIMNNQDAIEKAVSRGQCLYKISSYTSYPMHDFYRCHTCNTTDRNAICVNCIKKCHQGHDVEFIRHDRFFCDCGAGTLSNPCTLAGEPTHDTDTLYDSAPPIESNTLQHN
Assay: Cysteine liganding, probe competition
Format: binding
In short: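 Lysates from probe-sonicated cells in PBS (5 mg/ml proteome) were exposed to compound for 1 hr at 25° C, then labelled with desthiobiotin iodoacetamide probe (10 mM stock) for 1 hr at 25° C. Probe-tagged peptides were streptavidin-enriched after trypsin digestion.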

Row | Structure (SMILES) | Liganded (FBXO11 Res# 581, uniprot Q86XK2) | 100 Max (uniprot Q86XK2) | 100 ave (uniprot Q86XK2) | 500 Max (uniprot Q86XK2) | 500 ave (uniprot Q86XK2)
1 | COc1ccc2c(c1)CCCN2C(=O)CCl [KB02] | YES | – | – | – | –
2 | O=C(CCl)Nc1cc(C(F)(F)F)cc(C(F)(F)F)c1 [KBO3] | – | −13.9 | −20.1 | 28.6 | 20.3
